What was measured:
[1] = tested on: chronic rejection (host-versus-graft reaction), rat kidney transplantation model; assay: Chronic rejection model, rat kidney transplantation; type: in vivo; details: for Creatinine: serum; for Creatinine / Proteinuria: week 10 after transplantation, cyclosporine 1.5 mg/kg/day s.c. day 0-9
Text: (§1) The effect of calcium methyl fumarate for alleviating the host-versus-graft reaction both in acute and chronic rejection models was investigated on a rat kidney transplantation model.
In order to investigate the effect of calcium methyl fumarate on chronic rejection, three groups of rats received transplants (kidneys) in animal experiments. Groups 1 and 2 received a placebo (group 1) or calcium methyl fumarate (CaMF) (group 2) as active ingredient from day 28 before until day 28 after transplantation. The third group was given CaMF from day 30 to 60 after the kidney transplantation. All animals received cyclosporine from day 0 to 9 after the transplantation. The dosages administered were 1.5 mg/kg/day of cyclosporine (subcutaneously) and 33.3 mg/kg/day of CaMF (perorally).
The effect of the treatment was checked by measuring the creatinine levels in the serum, initially on day 0, 1, 3, 5, and 10 and then once a week, and by observing the urine protein levels which were measured once a week. In groups 1 and 2, n=10 animals each provided results suitable for evaluation; in group 3, n=9.

[2] = tested on: acute rejection of the graft (host-versus-graft reaction), rat kidney transplantation model; assay: Acute rejection model, rat kidney transplantation; type: in vivo; details: 33.3 mg/kg/day, day -28 to +28
Method: as §1
In order to investigate the influence of calcium methyl fumarate on the acute rejection of the graft, animal experiments were carried out (on rats). For this purpose, two groups of rats were treated with calcium methyl fumarate (CaMF; dosage: 33.3 mg/kg/day) or a placebo for a total period of 56 days [28 days before the kidney transplantation (−28) to 28 days after transplantation (+28)]. The number of animals with results fit for evaluation were n=9 in the placebo group and n=12 in the verum group. After that, the survival time of the animals in days after the transplantation was evaluated.

Ehrlich ascites tumour = details: mice; cited from earlier work
[3] = high dosages; parenterally, transdermally and especially perorally; cited from earlier work
[4] = Group 2: 33.3 mg/kg/day perorally day -28 to +28, n=10
[5] = Group 3: 33.3 mg/kg/day perorally day +30 to +60, n=9

## calcium methyl fumarate [CaMF]
[1]; 10 weeks of follow-up, versus placebo
  Damage to the kidneys (in words): significant inhibition of damage to the kidneys
[1]; [4]
  Creatinine: 55.7 ± 9.6 µmol/L
  Proteinuria: 31.8 ± 18.4 mg/24 hrs
[1]; [5]
  Creatinine: 88.0 ± 42.4 µmol/L
  Proteinuria: 52.5 ± 31.6 mg/24 hrs
[2]
  Average survival time in days versus placebo (in words): significant increase
[2]; >100 days after transplantation, n=12
  Number of surviving animals: 4
[2]; after kidney transplantation, n=12
  Average survival time: >42.3 ± 41.0 days
[2]; day 6 after transplantation, n=12
  Number of surviving animals: 12
[2]; day 7 after transplantation, n=12
  Number of surviving animals: 12
[2]; day 8 after transplantation, n=12
  Number of surviving animals: 12
[2]; day 9 after transplantation, n=12
  Number of surviving animals: 11
[2]; day 10 after transplantation, n=12
  Number of surviving animals: 10
[2]; day 12 after transplantation, n=12
  Number of surviving animals: 9
[2]; day 13 after transplantation, n=12
  Number of surviving animals: 8
[2]; day 14 after transplantation, n=12
  Number of surviving animals: 7
[2]; day 16 after transplantation, n=12
  Number of surviving animals: 6
[2]; day 17 after transplantation, n=12
  Number of surviving animals: 5
[2]; day 26 after transplantation, n=12
  Number of surviving animals: 5
[2]; day 27 after transplantation, n=12
  Number of surviving animals: 4

## O=C(O)/C=C/C(=O)O [Fumaric acid]
Ehrlich ascites tumour
  Growth of the Ehrlich ascites tumour: inhibits the growth

## O=C(O)/C(O)=C(\O)C(=O)O [dihydroxyl fumaric acid]
[3]
  Side effects and toxicity: unacceptably severe side effects and high toxicity

## N#C/C=C/C#N [fumaronitrile]
[3]
  Side effects and toxicity: unacceptably severe side effects and high toxicity

## NC(=O)/C=C/C(N)=O [fumaramide]
[3]
  Side effects and toxicity: unacceptably severe side effects and high toxicity
